How the values were obtained:
[1] = test system: bacteria; conditions: long-term experiments; cited from earlier work
[2] = Leaching test of cured plaques in artificial saliva (Ringer solution), UV/Vis spectroscopy; type: physicochemical
Experimental: These plaques were light-cured and stored in artificial saliva (Ringer solution) for 20 days at 37° C. By UV/Vis spectroscopy, no triclosan could be found in the artificial saliva.
Again, plaques were made from a mixture of the varnish components except for the solvent ethanol. These plaques were light-cured and stored in artificial saliva (Ringer solution) for 14 days at 37° C. By UV/Vis spectroscopy, some triclosan could be found in the artificial saliva.

## Oc1cc(Cl)ccc1Oc1ccc(Cl)cc1Cl [triclosan, 2,4,4′-trichloro-2′-hydroxydiphenyl ether]
[1]
  development of bacterial resistance: no development of bacterial resistance
[2]; plaque with 6.25 wt % triclosan based on resin mixture, 20 days at 37° C.
  triclosan embedded in the plaque leached out: less than 0.1 wt %
[2]; plaque with 40 wt % triclosan, 14 days at 37° C.
  leaching of the overall triclosan content of the plaque: 0.2 wt %

Source: patent US20010009931A1, “Protective varnish for dentin” (priority 1997, published 2001)
